Here are results for 3 compounds from US9828333B2, “Compounds for the treatment of influenza” (CHRISTIAN-ALBRECHTS-UNIVERSITAT ZU KIEL, priority 2011, dated 2017).

In series [1] the target is albumin (Homo sapiens, UniProt P02768). It counts as in vitro ADME. Particulars: 4% albumin solution, average of three concentrations (10, 25, 50 μM). The procedure: 3. Determination of Protein Binding of the Amidine Effective Form (3) as Well as of Prodrugs Thereof (2, 4) and of the Guanidine Effective Form (9) as Well as of Prodrugs Thereof (6, 10)
(§1) The plasma protein binding was carried out in three different concentrations (10, 25, and 50 μM). A 4% albumin solution was used as protein solutions. In each case, 50 μl of a 10-fold concentrated substance solution were pipetted in 450 μl of the protein solution. The incubation was carried out for 15 minutes in the shaking water bath at 37° C. Subsequently, the samples were transferred in ultra-filtration units (Vivaspin 500, 10 kDa cut-off) and centrifuged for 15 min at 10.000 rpm. The filtrate was analyzed by HPLC. In addition, a control was run for each concentration, which was not treated with protein and not centrifuged.

The test system of series [2] is influenza A virus A/Jena/5258/2009. Description: microbe, parasite or virus in culture. It counts as cell-based, influenza A virus H1N1. Conditions: Influenza A virus, MDCK, read-out: 50% inhibitory concentration, A/Jena/5258/2009.
Series [3] is described as follows: in vitro. Conditions: human plasma instead of the 4% albumin solution; read-out: Protein binding (converted). It counts as in vitro ADME. The procedure: . Therefor, human plasma was used instead of the 4% albumin solution. […]. The values are as expected somewhat higher than the values obtained with the 4% albumin solution and are to be traced back to the presence of other plasma proteins (e.g. α1-acidic glycoprotein) in addition to albumin.
as §1
. Therefor, instead of the 4% albumin solution, human plasma was used. […]. As anticipated, the values are somewhat higher than the values obtained with the 4% albumin solution and are due to the presence of other plasma proteins (e.g., α1-acidic glycoprotein) besides the albumin.

In series [4] the test system is influenza A virus A/Jena/5258/2009 (pandemic H1N1; oseltamivir-sensitive). It counts as cell-based.
The target of series [5] is neuraminidase of influenza A virus A/Jena/5258/2009 (H1N1-subtype) (Influenza A virus, UniProt A0A088CA11). Description: biochemical.
A short description of series [6]: in vivo. Conditions: rat; for Plasma level of derivative 9 (Conc.): intravenous administration of derivative 9, 10 mg/kg. The procedure: Sprague Dawley (SD) rats were supplied for habitation 10 days before the start of the experiment, weighing ˜300-350 g and kept in an air conditioned room with a constant temperature of 20° C. and a humidity of 50%. In this room there was a day-night rhythm of twelve hours. The dark phase began daily at 18 o'clock and turned over to the light phase at 6 clock. The rats were kept over the acclimatization period in standard cages of the size 3 (length: 42 cm, width 26 cm, height: 15 cm) and transferred three days before commencement of an experiment into a special experimental room, placed in the identical environmental conditions. They received a maintenance diet (maintenance diet for rats and mice; No. 1320; Altromin) and tap water ad libitum.
A catheter was implanted in the vein as well as in the arteria femoralis of rats receiving an i.v. administration. Rats receiving only oral administration of substances received a […] catheter only.
The catheterized animals were kept after surgery for a day in the experimental room and individually in their experimental cages. The application of the test compounds was carried out on the second day after the operation. On the experimental day, the rats were weighed one hour prior to the test and the arterial catheter was flushed with 300 μl of heparin solution. Subsequently, the i.v. or oral administration of the compounds was carried out.
The oral administrations were performed as a suspension or solution made with gum arabic (10% w/v) by gavage.
The oral administrations were made as suspension or solution with gum arabic (10% w/v) by gavage.
After i.v. administration, plasma samples were taken at 5, 10, 20, 45, 90, 150, 240 and 360 min, respectively after oral administration after 30, 60, 90, 120, 180, 240 and 360 min. To this, in each case 300 μl of whole blood were taken using an insulin syringe and transferred into EDTA-coated Microvettes CB 300 (Sarstedt, Nümbrecht). After each withdrawal it was rinsed with 100 μl 0.9% saline or every 60 min with heparin solution (250 IU/ml). The blood sample was shaken briefly and put until centrifugation (4° C.; 14000 U/min; 10 min) on ice. Subsequently, the samples were frozen at −80° C.
The plasma samples were processed and analyzed by HPLC. Therefor, the plasma samples were thawed at room temperature. In each case, 80 μl methanol (+0.2% TFA) were prepared and subsequently 80 μl of the plasma samples were pipetted into. The samples were shaken for 45 min to precipitate plasma proteins. The samples were frozen at −80° C., thawed and shaken for another 15 min. The samples were centrifuged for 15 min at 13.000 RPM and the supernatant was transferred into HPLC vials. In each case 50 μl were used for the determinations by LC/MS.
The animal studies were evaluated using the following LC/MS method.

For series [7], the system named is influenza A virus A/342/2009. As to the kind of experiment: microbe, parasite or virus in culture. It counts as cell-based, influenza A virus H1N1. Conditions: for IC50: read-out: 50% inhibitory concentration, A/342/2009.
Series [8] is described as follows: physchem. It counts as physicochemical. Conditions: aqueous buffer, thermodynamic from solid. The protocol:
2. Solubility Assays of the Compounds Tested
Determining the Solubility at Different pH Values:
Therefor, a few mg of the compounds were weighed and mixed with the volume of 50 mM KH2PO4 buffer of respective pH value for a 50 mM solution. […] Subsequently, the undissolved portion was removed by centrifugation at 10.000 rpm for 15 min, and the concentration in the supernatant was determined by HPLC.

The format of series [9] is in vitro ADME, human. Particulars: 37° C., up to 120 min. The procedure: (§2) In addition, the substances were tested in human and murine plasma. Therefor, 630 μl of the plasma as mixed with 70 μl of a 2 mM stock solution of each compound in 10 mM phosphate buffer pH 7.4. The incubations were performed in a shaking water bath at 37° C. The incubation was terminated at the times 15, 30, 45, 60, 90 and 120 min by removal of 100 μl sample and addition of 100 μl acetonitrile. The samples were centrifuged (12,000 rpm/10 min) and the supernatant surveyed by HPLC.
(§3) The stability studies were analyzed using the following HPLC method.

Series [10] is classed as in vitro ADME, murine. Particulars: 37° C., up to 120 min. The protocol: as §2, §3
Series [11] is classed as physicochemical. Conditions: 0.2 mg/ml, pH 7.4 at RT and 4° C. or Aqua bidest at 4° C., 14 days. The protocol: The storage stability in solution was determined at a concentration of 0.2 mg/ml. Therefor, a compound was dissolved in 50 mM KH2PO4 buffer, pH 7.4 respectively Aqua bidest and stored at RT (pH 7.4) or in a refrigerator at 4° C. (pH 7.4 respectively Aqua bidest) over the test period. The concentration of the active form was determined after 12 h, 1 d, 2 d, 4 d, 7 d and 14 d by HPLC.
Stability Studies for the Amidine Effective Form (3) and Guanidine Effective Form (9) Over 2 Weeks Studies at pH 7.4:
The storage stability in dissolved form was determined at a concentration of 0.2 mg/ml. For this purpose, the compound was dissolved in 50 mM KH2PO4 buffer pH 7.4 or in aqua bidest and stored for the investigation period at RT (pH 7.4) or in a refrigerator at 4° C. (pH 7.4 or aqua bidest). The concentration of the effective form was determined by HPLC after 12 h, 1 d, 2 d, 4 d, 7 d and 14 d.

For series [12] the following is noted: rat, in vivo; cited from earlier work.
The mark [13] stands for this setting: Sprague Dawley, in vivo, iv, 10 mg/kg.
The mark [14] stands for this setting: Sprague Dawley, in vivo, po, 50 mg/kg.

Like-named read-outs stand apart in the source and are kept apart here.

albumin, sequence (P02768 25-609): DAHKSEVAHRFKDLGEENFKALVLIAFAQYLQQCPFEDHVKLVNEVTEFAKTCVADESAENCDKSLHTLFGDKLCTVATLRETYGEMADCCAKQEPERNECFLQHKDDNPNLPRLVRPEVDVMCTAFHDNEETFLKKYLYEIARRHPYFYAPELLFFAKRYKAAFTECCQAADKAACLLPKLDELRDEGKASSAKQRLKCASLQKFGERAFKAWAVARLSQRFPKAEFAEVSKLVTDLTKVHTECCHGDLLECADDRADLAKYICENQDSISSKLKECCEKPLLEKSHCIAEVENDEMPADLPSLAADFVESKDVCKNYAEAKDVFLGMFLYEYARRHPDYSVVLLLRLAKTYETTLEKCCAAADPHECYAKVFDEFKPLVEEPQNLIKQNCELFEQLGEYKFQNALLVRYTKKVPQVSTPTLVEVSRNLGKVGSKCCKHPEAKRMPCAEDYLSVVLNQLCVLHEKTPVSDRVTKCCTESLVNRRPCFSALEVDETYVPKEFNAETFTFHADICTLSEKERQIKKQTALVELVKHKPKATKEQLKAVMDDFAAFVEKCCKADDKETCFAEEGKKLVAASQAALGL

With `CCC(CC)O[C@@H]1C=C(C(=O)O)C[C@H](NC(C)=N)[C@H]1NC(C)=O` [Compound 3], the Protein binding in series [1] was determined as 2.2 ± 1.5%. In addition, the IC50 came out at 2 µM in series [2]; 0.0001 µM in series [5]; 12.2 µM in series [7] (Influenza A virus, MDCK); 12.1 µM in [7]. Moreover, the fraction unbound in series [3] was 0.963. In series [4], the “90% inhibitory concentration, A/Jena/5258/2009” value (“90% inhibitory concentration” for short) is given as 0.001 (0.011) μM. Moreover, the “95% inhibitory concentration (values in parentheses), A/Jena/5258/2009” value (“95% inhibitory concentration” for short) in [4] is 0.001 (0.011) μM. The Bioavailability came out at 100% in series [6] (setting [13]) and 3.0% in series [6] (setting [14]). Also, the results for the MRT in [6] (setting [13]) and in [6] (setting [14]) were 0.587 h and 1.867 h, respectively. In addition, the half-life (as a rule, the time in which the quantity being followed falls by half) was 0.642 h in series [6] (setting [13]) and around 1.87 h in series [6] (Sprague Dawley, in vivo, po). In series [6] (setting [14]), this compound came in with a cmax of 0.7 µg/mL. The “Plasma level of derivative 3 (Conc.) after oral administration of the labelled derivative” value was found to be 0 nM in series [6] (Sprague Dawley, in vivo, po, 50 mg/kg, 0 min); 1630 nM in [6] (Sprague Dawley, in vivo, po, 50 mg/kg, 30 min); 1590 nM in series [6] (Sprague Dawley, in vivo, po, 50 mg/kg, 60 min); 1500 nM in [6] (Sprague Dawley, in vivo, po, 50 mg/kg, 90 min); 1250 nM in [6] (Sprague Dawley, in vivo, po, 50 mg/kg, 120 min); 610 nM in [6] (Sprague Dawley, in vivo, po, 50 mg/kg, 180 min). Moreover, the “Plasma level of derivative 3 (Conc.) after oral administration of the labelled derivative” value in [6] (Sprague Dawley, in vivo, po, 50 mg/kg, 240 min) is 300 nM; in series [6] (Sprague Dawley, in vivo, po, 50 mg/kg, 360 min), 40 nM. In [6] (Iv, 10 mg/kg, active form 3 in plasma), this compound showed an AUC of 576.8. The solubility (in general, the dissolved amount per volume that the medium holds) at 30 min in [8] was above 50 mM.
Turning to `CCC(CC)O[C@@H]1C=C(C(=O)O)C[C@H](NC(=N)N)[C@H]1NC(C)=O` [Compound 9, (3R,4R,5S)-4-acetamido-5-(N-guanidino)-3-(1-ethylpropoxy)cyclohex-1-en-1-carboxylic acid], the Protein binding in [1] is on record as 0.4 ± 2.8%. In addition, the IC50 in series [2] was 1.1 µM; in series [7] (Influenza A virus, MDCK), 4.1 µM. For the same compound, the fraction unbound in series [3] is 0.914. Moreover, the “Stability/metabolism by plasma enzymes in human plasma” value in [9] was “not metabolized”. In addition, the “90% inhibitory concentration” value in series [4] was 0.002 (0.003) μM. In addition, in series [4], the “95% inhibitory concentration” value is 0.002 (0.003) μM. For the same compound, the AUC in series [6] (setting [13]) was 4880 ng·h/mL. This compound also returned a Bioavailability in [6] (setting [13]) of 100%. For the same compound, in series [6] (setting [13]), the MRT – broadly, a mean duration of stay, worked out from the concentration-time curve – is 0.902 h. For the same compound, the half-life was 2 h in series [6] (setting [13]) and around 1.63 h in series [6] (Sprague Dawley, in vivo, po). Moreover, the “Plasma level of derivative 9 (Conc.)” value stood at 23710 nM in series [6] (time 5); 18300 nM in series [6] (time 10); 12670 nM in series [6] (time 20); 5050 nM in series [6] (time 45); 1670 nM in series [6] (time 90); 540 nM in series [6] (time 150). Moreover, the figures for the “Plasma level of derivative 9 (Conc.)” value in series [6] (time 240) and in series [6] (time 360) were 230 nM and 110 nM, respectively. Also, the “Stability/metabolism by plasma enzymes in murine plasma” value in series [10] was “not metabolized”. The “Storage stability in solution” value in series [11] is recorded as “stable”.
With `CCOC(=O)C1=C[C@@H](OC(CC)CC)[C@H](NC(C)=O)[C@@H](N)C1` [Oseltamivir, (3R,4R,5S)-4-acetamido-5-amino-3-(1-ethylpropoxy)cyclohex-1-en-1-carboxylic acid ethyl ester, reference compound], in series [2], the IC50 was found to be 13.2 µM. In series [4], the “90% inhibitory concentration” value is on record as 0.016 (0.021) μM and the “95% inhibitory concentration” value is given as 0.016 (0.021) μM. The same compound had an IC50 in [5] of 0.0001 µM. For the same compound, the “50% inhibitory concentration, A/342/2009” value in series [7] is listed as “resistant”. Besides, the plasma half-life period in series [12] is 0.733 h.
